Like-named read-outs stand apart in the source and are kept apart here. Peptide text beside a SMILES is read from it.
Experiments:
rat SSTR-5 [1] = target: T1, rat SSTR-5 (Rattus norvegicus, UniProt P30938); conditions: Table 22; known SST analogs, literature values; read-out: IC50 value rSSTR 5; cited from earlier work
T1 sequence (P30938 1-363): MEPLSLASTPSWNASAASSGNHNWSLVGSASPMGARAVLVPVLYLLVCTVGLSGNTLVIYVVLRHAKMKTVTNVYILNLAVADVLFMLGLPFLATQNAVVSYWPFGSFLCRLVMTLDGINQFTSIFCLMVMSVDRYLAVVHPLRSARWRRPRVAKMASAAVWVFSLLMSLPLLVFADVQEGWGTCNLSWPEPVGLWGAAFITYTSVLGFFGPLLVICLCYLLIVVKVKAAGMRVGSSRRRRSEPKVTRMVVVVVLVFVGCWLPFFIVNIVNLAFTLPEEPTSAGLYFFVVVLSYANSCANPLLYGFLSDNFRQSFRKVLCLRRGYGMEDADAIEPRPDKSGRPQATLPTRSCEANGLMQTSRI

SSTR-4 [2] = target: T2, SSTR-4 (Homo sapiens, UniProt P31391); conditions: Table 22; known SST analogs, literature values; cited from earlier work
human SSTR-5 [3] = target: T3, human SSTR-5 (Homo sapiens, UniProt P35346); conditions: Table 22; known SST analogs, literature values; read-out: IC50 value hSSTR 5; cited from earlier work
SSTR-2 = conditions: Table 22; known SST analogs, literature values; cited from earlier work
SSTR-3 [4] = target: T4, SSTR-3 (Homo sapiens, UniProt P32745); conditions: Table 22; known SST analogs, literature values; cited from earlier work
SSTR-1 [5] = target: T5, SSTR-1 (Homo sapiens, UniProt P30872); conditions: Table 22; known SST analogs, literature values; cited from earlier work
SSTR-4 [6] = target: T2, SSTR-4; assay: Radioligand binding, inhibition of 125I-Tyr11-SRIF binding to cloned SSTR-4
Procedure: (§1) The somatostatin analogs were tested for their potency in inhibition of the binding of ^125 I-Tyr^11 -SRIF (based on the method described by Raynor et. al., Molecular Pharmacology 43, 838-844, 1993) to membrane preparations expressing the transmembranal somatostatin receptors (SSTR-1,2,3,4 or 5). The receptor preparations used for these tests were either from the cloned receptors selectively and stably expressed in Chinese Hamster Ovary (CHO) cells or from cell lines naturally expressing the SSTRs. […] The binding reactions were filtered, the filters were washed and the bound radioactivity was counted in gamma counter. […] In order to validate positive signals of the binding tests, and to eliminate non-specific signals, samples of irrelevant peptides, such as GnRH, that were synthesized and handled using the same procedures, were tested in the same assays as negative control samples.

SSTR-1 [7] = target: T5, SSTR-1; assay: Radioligand binding, inhibition of 125I-Tyr11-SRIF binding to cloned SSTR-1
Procedure: as §1

rat SSTR-5 [8] = target: T1, rat SSTR-5; assay: Radioligand binding, inhibition of 125I-Tyr11-SRIF binding to cloned rat SSTR-5
Procedure: as §1

SSTR-3 [9] = target: T4, SSTR-3; assay: Radioligand binding, inhibition of 125I-Tyr11-SRIF binding to cloned SSTR-3
Procedure: as §1

human SSTR-5 [10] = target: T3, human SSTR-5; assay: Radioligand binding, inhibition of 125I-Tyr11-SRIF binding to cloned human SSTR-5
Procedure: as §1

T4 sequence (P32745 whole entry, species assumed): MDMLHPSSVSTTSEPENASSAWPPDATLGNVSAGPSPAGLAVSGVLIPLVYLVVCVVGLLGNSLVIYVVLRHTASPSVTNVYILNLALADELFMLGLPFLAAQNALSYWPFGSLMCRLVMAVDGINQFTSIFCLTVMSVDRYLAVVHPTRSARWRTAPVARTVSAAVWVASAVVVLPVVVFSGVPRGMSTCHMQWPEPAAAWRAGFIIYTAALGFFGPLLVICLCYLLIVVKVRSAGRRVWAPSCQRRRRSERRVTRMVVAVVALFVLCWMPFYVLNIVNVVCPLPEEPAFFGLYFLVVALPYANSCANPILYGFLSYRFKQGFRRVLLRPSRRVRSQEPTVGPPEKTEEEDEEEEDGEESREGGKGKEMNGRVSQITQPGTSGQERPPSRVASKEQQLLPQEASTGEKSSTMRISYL
T5 sequence (P30872 whole entry, species assumed): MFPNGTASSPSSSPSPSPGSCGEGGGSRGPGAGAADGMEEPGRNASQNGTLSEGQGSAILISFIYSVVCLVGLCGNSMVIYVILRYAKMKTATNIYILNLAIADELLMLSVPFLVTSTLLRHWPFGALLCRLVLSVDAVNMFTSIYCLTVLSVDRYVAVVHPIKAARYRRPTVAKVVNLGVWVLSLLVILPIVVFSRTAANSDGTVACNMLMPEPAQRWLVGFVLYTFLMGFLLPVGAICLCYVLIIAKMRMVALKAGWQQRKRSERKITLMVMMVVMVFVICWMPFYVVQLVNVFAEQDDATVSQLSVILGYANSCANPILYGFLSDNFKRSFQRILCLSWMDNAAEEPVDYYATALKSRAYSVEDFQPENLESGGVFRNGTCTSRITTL
T3 sequence (P35346 whole entry): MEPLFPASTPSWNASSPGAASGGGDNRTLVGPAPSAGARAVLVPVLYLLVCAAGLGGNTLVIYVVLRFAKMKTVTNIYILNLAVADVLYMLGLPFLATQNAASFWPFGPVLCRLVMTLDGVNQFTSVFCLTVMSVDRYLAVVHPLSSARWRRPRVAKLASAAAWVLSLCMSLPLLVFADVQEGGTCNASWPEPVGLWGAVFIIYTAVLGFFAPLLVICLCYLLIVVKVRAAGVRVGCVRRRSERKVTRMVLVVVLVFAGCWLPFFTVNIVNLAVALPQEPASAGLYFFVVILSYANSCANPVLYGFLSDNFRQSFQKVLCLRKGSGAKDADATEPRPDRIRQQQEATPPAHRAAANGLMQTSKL
T2 sequence (P31391 whole entry, species assumed): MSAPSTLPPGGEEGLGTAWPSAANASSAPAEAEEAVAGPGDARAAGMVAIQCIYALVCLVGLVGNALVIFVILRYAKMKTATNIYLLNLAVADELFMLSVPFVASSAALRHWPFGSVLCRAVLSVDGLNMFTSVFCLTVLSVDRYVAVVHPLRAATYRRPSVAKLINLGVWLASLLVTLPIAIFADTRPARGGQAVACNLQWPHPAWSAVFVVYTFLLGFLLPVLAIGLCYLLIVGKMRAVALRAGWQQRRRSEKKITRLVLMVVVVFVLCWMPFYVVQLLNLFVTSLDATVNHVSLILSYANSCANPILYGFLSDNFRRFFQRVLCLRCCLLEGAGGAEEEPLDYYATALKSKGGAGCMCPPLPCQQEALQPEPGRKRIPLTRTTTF

| Compound | IC50 (rat SSTR-5 [1]) | IC50 (SSTR-4 [2]) | IC50 (human SSTR-5 [3]) | IC50 (SSTR-2) | IC50 (SSTR-3 [4]) | IC50 (SSTR-1 [5]) | IC50 (SSTR-4 [6]) | IC50 (SSTR-1 [7]) | IC50 (rat SSTR-5 [8]) | IC50 (SSTR-3 [9]) | IC50 (human SSTR-5 [10]) |
| --- | --- | --- | --- | --- | --- | --- | --- | --- | --- | --- | --- |
| DPhe^5 -Phe^6 -Phe^7 -DTrp^8 -Lys^9 -Thr^10 -Phe^11 -Thr^12 -NH2 [BIM-23052] | 0.004 nM | 18 nM | 4 nM | – | – | – | – | – | – | – | – |
| CC(C)[C@@H]1NC(=O)[C@H](CCCCN)NC(=O)[C@@H](Cc2c[nH]c3ccccc23)NC(=O)[C@H](Cc2ccc(O)cc2)NC(=O)[C@@H](NC(=O)[C@H](N)Cc2ccc3ccccc3c2)CSSC[C@@H](C(=O)N[C@H](C(N)=O)[C@@H](C)O)NC1=O [Somatuline] | 0.5 nM | – | – | 2 nM | 6 nM | 800 nM | – | – | – | – | – |
| C[C@@H](O)[C@H](NC(=O)CN1CCC(=O)NCCCN(C(=O)[C@H](N)Cc2ccccc2)CC(=O)N[C@@H](Cc2ccccc2)C(=O)N[C@H](Cc2c[nH]c3ccccc23)C(=O)N[C@@H](CCCCN)C(=O)N[C@@H]([C@@H](C)O)C1=O)C(N)=O [PTR 3010] (HELM PEPTIDE1{[dF].[O=C(CN(CCCN[*:3])[*:1])[*:2]].F.[dW].K.T.[O=C(CN(CCC(=O)[*:3])[*:1])[*:2]].T.[am]}$PEPTIDE1,PEPTIDE1,2:R3-7:R3$$$V2.0) | – | – | – | – | – | – | > 10000 nM | 2500 nM | 500 nM | > 1000 nM | > 2000 nM |

— patent publication US5770687A, “Comformationally constrained backbone cyclized somatostatin analogs” (Peptor Limited, priority 1996, dated 1998)
